# Test results published in US10336716B2, “Thermodynamically stable crystal modification of 2-methyl-N-(5-methyl-1, 3, 4-oxadiazol-2-yl)-3-(methylsulfonyl)-4-(trifluoromethyl)benzamide” (Bayer CropScience Aktiengesellschaft, priority 2015, dated 2019).
# How the values were obtained:
# Assay type in all cases: physicochemical
# [1] = wettability on mixing with water (first comparative experiment)
# Description: Moreover, the benzamide obtainable according to the disclosure of WO 2012/126932 A1 has the disadvantage that it can be less readily worked up, filtered, purified and wetted with solvents. […] These disadvantages are overcome by the provision of the thermodynamically stable benzamide according to the invention.
# [2] = stability test: storage of oil dispersion; details: after several weeks of storage
# [3] = testing in practice of suspension formulations; details: suspension formulation, benzamide finely ground in solid form
# Description: The benzamide known for example from WO 2012/126932 A1 (example No. 2-145 in table 2 therein) has herbicidal properties and is suitable for the production of crop protection compositions which can be employed for weed control. However, it has been shown that the benzamide obtainable according to the disclosure of WO 2012/126932 A1 is not suitable for the preparation of user-friendly administration forms. User-friendly administration forms are, for example, suspension formulations in which the benzamide is present finely ground in solid form. […] The crystal growth can occur spontaneously or over a longer period and cannot be predicted.
wettability ([1]; after 1 minute on mixing with water),clumping and precipitation of oil dispersion on storage [2],wettability with solvents (in words) ([1]; solvents such as water and aqueous solvents),Structure (SMILES),crystal growth in suspension formulations [3]
100%,no signs of clumping and precipitation,,"Cc1nnc(NC(=O)c2ccc(C(F)(F)F)c(S(C)(=O)=O)c2C)o1 [crystal modification A, 2-methyl-N-(5-methyl-1,3,4-oxadiazol-2-yl)-3-(methylsulfonyl)-4-(trifluoromethyl)benzamide]",
,,poorer wettability,"Cc1nnc(NC(=O)c2ccc(C(F)(F)F)c(S(C)(=O)=O)c2C)o1 [2-methyl-N-(5-methyl-1,3,4-oxadiazol-2-yl)-3-(methylsulfonyl)-4-(trifluoromethyl)benzamide]",leads to crystal growth in suspension formulations and consequently to clumping and precipitation
